Primed or numbered codes have the meaning given here. Where no end group is shown, it is not given here. The star is where a group is joined. FITC = O=C1OC2(c3ccc(O)cc3Oc3cc(O)ccc32)c2ccc(NC(=S)*)cc21; DOTA = O=C(O)CN1CCN(CC(=O)O)CCN(CC(=O)*)CCN(CC(=O)O)CC1; FITC′ = fluorescent dye, fluorescein isothiocyanate
Key:
MMP-2 = biological target: T1, MMP-2 (Homo sapiens, UniProt P08253); assay: Cleavage test with MMP-2, cleavage products examined by HPLC; format: biochemical; conditions: for cleavage of the compound by MMP-2 (HPLC): already active MMP-2 or proform of MMP-2 activated by APMA, 2 hours in HEPES buffer; for cleavage of the compound by MMP-2 in presence of the inhibitor (HPLC): with MMP-2 inhibitor I
T1 construct: purchased Calbiochem
T1 sequence (P08253 110-660): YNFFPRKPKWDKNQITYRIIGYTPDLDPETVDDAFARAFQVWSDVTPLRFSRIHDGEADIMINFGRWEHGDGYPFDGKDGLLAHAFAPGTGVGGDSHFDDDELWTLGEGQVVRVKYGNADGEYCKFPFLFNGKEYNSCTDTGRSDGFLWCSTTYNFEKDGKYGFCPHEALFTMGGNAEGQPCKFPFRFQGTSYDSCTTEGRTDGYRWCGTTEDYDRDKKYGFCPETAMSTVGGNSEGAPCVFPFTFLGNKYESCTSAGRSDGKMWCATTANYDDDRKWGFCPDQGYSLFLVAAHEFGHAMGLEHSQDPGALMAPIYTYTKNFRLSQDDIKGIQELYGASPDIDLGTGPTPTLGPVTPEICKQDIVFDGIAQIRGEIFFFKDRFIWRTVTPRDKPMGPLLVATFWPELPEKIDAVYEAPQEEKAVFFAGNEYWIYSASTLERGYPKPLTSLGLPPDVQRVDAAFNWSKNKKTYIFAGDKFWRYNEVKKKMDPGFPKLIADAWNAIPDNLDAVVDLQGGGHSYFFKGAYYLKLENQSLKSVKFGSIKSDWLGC
Procedure: The incubation in HEPES buffer with active MMP-2 was made for 2 hours.
[…]. For this 1% APMA stock solution (100 mM in DMSO) was added to the solution containing the MMP-2 proenzyme and the compounds (final APMA concentration: 1 mM, with 1% DMSO).
In the following also an incubation of 2 hours was performed. In addition the tests were made with the MMP-2 inhibitor I (Calbiochem). All six compounds were, as a control, also incubated into HEPES buffer without MMP-2 for two hours.

[1] = test system: LN18 and U373 glioma cells; assay: Confocal laser scanning microscopy (CLSM) and FACS, staining of cell nuclei; format: cell-based, human; conditions: 130 μM; for staining of the cell nuclei, MMP-2 active: APMA-containing medium without inhibitor; for staining of the cell nuclei, MMP-2 inactive: APMA-containing medium, MMP-2 inactive/inhibited
Procedure: (§1) The FACS analysis was performed on a Becton-Dickinson FACSCalibur. [[…] of the cell suspension (1×10^6 cells+[…] FACS buffer (DPBS buffer with 1% paraformaldehyde)]. Approximately 25.000 to 35.000 cells were measured per sample [fluorescence excitation: argon-ion laser (480 nm), fluorescence detection: 540 to 565 nm band-path filter]. The tests were repeated two times.

[2] = test system: LN18 and U373 glioma cells; conditions: for apoptosis (binding of Alexa annexin to phosphatidyl serine; morphologic alterations), MMP-2 active / signs of cell death, MMP-2 inactive: 130 μM; for apoptosis (binding of Alexa annexin to phosphatidyl serine; morphologic alterations), MMP-2 active: APMA-containing medium without inhibitor; for signs of cell death, MMP-2 inactive: data not shown
Procedure: Human malignant glioma cells (U373 and LN18) were seated into 25 cm^2 culture flasks which contained 3 ml RPMI medium. This was left as it is for one day so that enough matrix metalloprotenases (MMP-2) could accumulate.
In a second test the same compounds were again dissolved in the media of 12 flasks (130 μM), however now with MMP-2 inhibitor I (Calbiochem).
As a control four small flasks were used wherein both cell lines were incubated in a one day old medium with and also without APMA.
For the confocal laser scanning microscopy an inverted LSM510 laser scanning microscope (Karl Zeiss, Jena, Deutschland) (Objectives: LD Achroplan 40×0.6, Plan Neofluar 20×0.50, 40×0.75) was used [fluorescence excitation at 488 nm (argon-ion laser) and […] (helium-neon laser)]. Superimposed images of FITC- and alexa-stained cells were produced. All measurements were performed on living, non-fixed cells for three times.

LN18 glioma cells = assay: FACS analysis of fluorescence-stained cells; format: cell-based, human; conditions: for strongly stained cells in FACS after cleavage by active MMP-2: active versus inactive MMP-2 in culture medium; for fluorescence after cleavage by MMP-2 in comparison to the components 2 and 2A: depending on the concentration, FIG. 5
Procedure: as §1

[3] = test system: U373 and LN18 glioma cells; assay: Magnetic resonance relaxometry on glioma cell centrifugates; format: cell-based, human; conditions: for shortening of the T1 time, inhibitor-free medium: without MMP-2 inhibitor
Procedure: Human U373 and LN18 glioma cells were grown in 25 cm^2 culture flasks (70% confluence). Accutase™ (PAA laboratories, Pasching, Austria) was added to strip off the cells from the bottom of the culture flasks.
In a first try the cells were collected and subsequently distributed on 16 Eppendorf-vials (6×10^6 cells per vial). The cells in the first four vials were used as a control (only RPMI medium with and also without APMA, two cell lines). […] In the following it was washed for three times with PBS and centrifuged with 800 rpm (rounds per minute) for 5 minutes.
In another test adherent U373 and LN18 glioma cells were incubated with the compounds 2A, 4A and […], and were stripped off in the following and collected in Eppendorf vials for the MRT. The MRT analysis of the Eppendorf vials with the cell centrifugates were performed in a 3 Tesla full body MRT apparatus (Trio, Siemens Magnetom Sonata, circular polarised knee coil).
The following spin echo sequence was used to obtain sagittal T1-weighted MRT images.
[…] TE (echo time): 7.4 ms, flip angle 90°, averages: 1, concatenations: 2, measurements: 2, number of slices: 19, distance factor: 30%, slice thickness: 3 mm, field of view read: 180 mm, field of view phase: 100%, base resolution: 256, phase resolution: 100%, voxel size: 0.7×0.7×3.0 mm, scan time: 1:48 min.
By means of multiple spin echo measurements (TR: 20-8000 ms, 50 different TR values) different signal intensities were measured through which the T1 relaxation time could be determined.
TR: 20-8000 ms (50 different TR values), TE: 6.4 ms, flip angle 90°, averages: 1, measurements; 1, number of slices: 1, slice thickness: 1 mm, field of view read: 120 mm, field of view phase: 87.5, base resolution 128, phase resolution; 100% voxel size: 0.9×0.9×1 mm.
For the analysis and calculations a Matlab programme (Math Works, Natick, Mass., USA) was used. The T1 values were determined via a two-parameter fit. All signal curves were examined and rated as being mono-exponential. All tests were performed three times.

Compound | cleavage of the compound by MMP-2 (HPLC) (MMP-2) | cleavage of the compound by MMP-2 in presence of the inhibitor (HPLC) (MMP-2) | staining of the cell nuclei, MMP-2 active [1] | staining of the cell nuclei, MMP-2 inactive [1] | apoptosis (binding of Alexa annexin to phosphatidyl serine; morphologic alterations), MMP-2 active [2] | signs of cell death, MMP-2 inactive [2] | strongly stained cells in FACS after cleavage by active MMP-2 (LN18 glioma cells; LN18 glioma cells) | displacement of the peak of the FACS histogram to the right, V4 versus V2 (LN18 glioma cells; LN18 glioma cells, after cleavage by active MMP-2) | fluorescence after cleavage by MMP-2 in comparison to the components 2 and 2A (LN18 glioma cells) | cleavage of the compound by MMP-2 (HPLC) (MMP-2; listed as 5A) | cleavage of the compound by MMP-2 (HPLC) (MMP-2; listed as V5a) | shortening of the T1 time in comparison to component 2A, inhibitor-free medium ([3]; depending on the concentration) | shortening of the T1 time, inhibitor-free medium [3] | shortening of the T1 time in comparison to the native control, inhibitor-containing medium ([3]; 26 and 130 μM, with MMP-2 inhibitor) | signal intensity at TR: 400 ms, active MMP-2 versus inactive MMP-2 ([3]; LN18 glioma cell centrifugates, 26 and 130 μm, washed and centrifuged three times) | cleavage of the compound by MMP-2 (HPLC) (MMP-2; listed as 5) | staining of the cell nuclei, MMP-2 inactive ([1]; listed as 5) | damage of the cell vitality by additive in the medium ([2]; additive alone in RPMI medium, LN18 and U373 glioma cells)
K(DOTA)-G-PLGLA-GGPKKKRKVRRRR-K(FITC)-GG-K(DOTA) (K(DOTA)GPLGLAGGPKKKRKVRRRRK(FITC)GGK(DOTA)) [V4] | cleaved | prevented | staining of the cell nuclei can only be observed after the cleavage | few stained cell nuclei | apoptotic | did not show any signs of cell death | considerable increase of the strongly stained cells | more pronounced | stronger fluorescence |  |  |  |  |  |  |  |  | 
K-(GdDOTA)-GG-K(FITC)-RRRR-G-PLGLA-G-RRRR-K(FITC)-GG-K(GdDOTA) (K(DOTA)GGK(FITC′)RRRRGPLGLAGRRRRK(FITC′)GGK(DOTA)-NH2; also: DOTA groups complexed with Gd (GdDOTA)) [V5A] |  | prevented |  | few stained cell nuclei | apoptotic |  |  |  | stronger fluorescence | cleaved | split into two new peaks | stronger shortening of the T1 time | more distinct shortening of the T1 time |  |  |  |  | 
PKKKRKV-K(FITC)-GG-K(GdDOTA)-PLGVR-K(GdDOTA) (PKKKRKVKGGKPLGVRK; not fully specified) [V2A] | cleaved | prevented |  | few stained cell nuclei |  | did not show any signs of cell death |  |  |  |  |  |  | more distinct shortening of the T1 time | minor shortening of the T1 time | considerably higher signal intensity |  |  | 
PKKKRKV-K(FITC)-GG-K(DOTA)-PLGVR-K(DOTA) (PKKKRKVKGGKPLGVRK) [V2] | cleaved | prevented |  | few stained cell nuclei |  | did not show any signs of cell death | considerable increase of the strongly stained cells |  |  |  |  |  |  |  |  |  |  | 
K(DOTA)-GG-K(FITC)-RRRR-G-PLGLA-G-RRRR-K(FITC)-GG-K(DOTA) (K(DOTA)GGK(FITC)RRRRGPLGLAGRRRRK(FITC)GGK(DOTA)) [V5] | split into two new peaks | prevented | accumulates in the cell nuclei | the cells remain unstained | apoptotic | did not show any signs of cell death |  |  | stronger fluorescence |  |  |  |  |  |  | cleaved | few stained cell nuclei | 
CCCCCCCC/C=C\CCCCCCCC(=O)NO [MMP-2 inhibitor I, reference compound] |  |  |  |  |  |  |  |  |  |  |  |  |  |  |  |  |  | did not result in a damage of the cell vitality

Reference: US20100267928A1, “ACTIVATABLE DIAGNOSTIC AND THERAPEUTIC COMPOUND” (priority 2007, published 2010)
